# Results from PMC10959927, “Platinum iodido drugs show potential anti-tumor activity, affecting cancer cell metabolism and inducing ROS and senescence in gastrointestinal cancer cells” (Communications Biology, 2024).
# “And” between values parts separate entries of the source, which are not always exact repeats. Equal entries are not always repeated.
# Columns and labels:
# Format in all cases: cell-based, human
# PANC1 cells [1] = assay: Clonogenic (CFU) assay after 1, 3, 24 h pre-treatment
# Description: For the clonogenic assay we used two different approaches. […] Then, cells were cultured in a 6-well plate at a very low concentration (2 × 10^3 cells per well) and incubated for 10 days. […] To evaluate the role of ROS in cell proliferation, we supplemented the growth medium with 0.5 mM NAC. After 10 days, the cells were fixed with 1% glutaraldehyde and stained with 0.1% crystal violet. The number of colonies was quantified directly and reflected as CFUs: Colony Forming Units.
# AGS cells [2] = assay: Immunofluorescence of γ-H2AX and 53BP1 foci; details: for foci/cell, share of cells in class (Suma 100) / foci/cell, number of cells in class: Fig. 3B; for foci/cell, number of cells in class: cell count
# Description: (§1) Cells (7 × 10^4) were seeded on 20 mm coverslips. […] Coverslips were incubated for 1 h with the primary antibody (Cell Signaling: H2AX Ser139 (#2595) and 53BP1 (#4937)) at room temperature, followed by a 1 h incubation with the appropriate secondary antibody. DNA was stained with DAPI. Fluorescence microscopy was performed using a NIKON Eclipse 90i. The image analysis was performed using the software program Nikon NIS-Elements and Image J.
# PANC1 cells [3] = assay: Immunofluorescence of γ-H2AX and 53BP1 foci; details: for foci/cell, share of cells in class (Suma 100) / foci/cell, number of cells in class: PANC1, Fig. 3B; for foci/cell, number of cells in class: cell count
# Description: as §1
# AGS cells [4] = assay: SA-β-Gal histochemical staining; details: Fig. S4A
# Description: SA-β-Gal activity was measured following two different approaches. (i) AGS, MKN45 and PANC1 cells (5 × 10^4) were seeded in 24-multiwell dishes and incubated overnight. […] For flow cytometry cell senescence detection, cells were tripsinized, fixed for 15 min with PFA 4% and stained with the CellEvent Senescense Green Flow Cytometry Assay Kit (C10840, Invitrogen) according to manufacturer’s instructions. CellEvent Senescense Green Probe was used at a 1:500 dilution and fluorescence was detected using the filter (Ex488nm/Em530/30) BL1 with a 4-laser Attune NxT Acoustic Cytometer (Thermo Fisher Scientific). […] After 3 h, the treatments were removed, new supplemented medium was added, and cells were incubated for an additional 24 h. Finally, SA-β-Gal staining was performed using the Senescence Cells Histochemical Staining Kit (CS0030-1KT) according to the manufacturer’s instructions.
# MKN45 cells [5] = assay: Immunofluorescence of γ-H2AX foci; details: Fig. 3B; for foci/cell, number of cells in class: cell count
# Description: as §1
# AGS cells [6] = assay: RT-qPCR gene expression (CDKN1A, IL6, MMP1, MAP2K3, SOD1, SOD2, CAT, MKI67, TNFRSF10D)
# Description: (§2) Total cellular RNA was extracted using Tri-Reagent (Life Technologies), following the manufacturer’s instructions. One μg of total RNA was primed with random primers and cDNA synthesized with an M-MLV reverse transcriptase following the manufacturer’s instructions (Promega). Target genes were amplified using a SYBR Green polymerase chain reaction assay, working with the specific primer sets listed in Table 4.
# (§3) Thermal cycling of the qPCR reaction was initiated with a denaturation step at 95 °C for 10 min. The process consisted of 40 cycles (denaturation at 95 °C for 15 sec, annealing at 60 °C for 30 sec, and elongation at 75 °C for 30 sec). PCR amplifications were carried out in a StepOne Real‐time PCR System (Applied Biosystems, 4376357). Relative mRNA levels were calculated by the delta-Ct method (2-ΔΔCt), where each 1-Ct difference equals a two-fold change in transcript abundance, using GAPDH as an endogenous gene reference. ΔΔCT represents the difference between the mean ΔCT value of the cells tested and the mean ΔCT value of the calibrator, both calculated for the same PCR run.
# MKN45 cells [7] = assay: as above
# Description: as §2, §3
# PANC1 cells [8] = assay: as above
# Description: as §2, §3
# [9] = MKN45, Fig. 3C, replicate values
# [10] = PANC1, Fig. 3C, replicate values
smiles,measurement,setting,value
"CC(C)[NH][Pt@SP3]([I])([I])[NH]C(C)C [I5, trans-[PtI2(isopropylamine)2]]",CFUs,"PANC1 cells [1]; PANC1, 1 h pre-treatment at IC50, colonies after 10 days",176 and 164 and 136
same,CFUs,"PANC1 cells [1]; PANC1, 3 h pre-treatment at IC50, colonies after 10 days",104 and 76 and 68
same,"foci/cell, share of cells in class (Suma 100)",AGS cells [2]; class 16-30 foci/cell,32.2835
same,"foci/cell, number of cells in class",AGS cells [2]; class 16-30 foci/cell,41
same,"foci/cell, share of cells in class (Suma 100)",AGS cells [2]; class 31-45 foci/cell,14.1732
same,"foci/cell, number of cells in class",AGS cells [2]; class 31-45 foci/cell,18
same,"foci/cell, share of cells in class (Suma 100)",AGS cells [2]; class 46-60 foci/cell,7.874
same,"foci/cell, number of cells in class",AGS cells [2]; class 46-60 foci/cell,10
same,"foci/cell, share of cells in class (Suma 100)",AGS cells [2]; class <15 foci/cell,37.0079
same,"foci/cell, number of cells in class",AGS cells [2]; class <15 foci/cell,47
same,"foci/cell, share of cells in class (Suma 100)",AGS cells [2]; class >61 foci/cell,8.661
same,"foci/cell, number of cells in class",AGS cells [2]; class >61 foci/cell,11
same,foci/cell: number of cells with 16-30 foci,"AGS cells [2]; Fig. S4B, cell counts",24
same,foci/cell: number of cells with 31-45 foci,"AGS cells [2]; Fig. S4B, cell counts",5
same,foci/cell: number of cells with 46-60 foci,"AGS cells [2]; Fig. S4B, cell counts",2
same,foci/cell: number of cells with <15 foci,"AGS cells [2]; Fig. S4B, cell counts",37
same,foci/cell: number of cells with >61 foci,"AGS cells [2]; Fig. S4B, cell counts",0
same,foci/cell: share of cells with 16-30 foci (Suma 100),"AGS cells [2]; Fig. S4B, share of N",35.2941
same,foci/cell: share of cells with 31-45 foci (Suma 100),"AGS cells [2]; Fig. S4B, share of N",7.353
same,foci/cell: share of cells with 46-60 foci (Suma 100),"AGS cells [2]; Fig. S4B, share of N",2.941
same,foci/cell: share of cells with <15 foci (Suma 100),"AGS cells [2]; Fig. S4B, share of N",54.4118
same,foci/cell: share of cells with >61 foci (Suma 100),"AGS cells [2]; Fig. S4B, share of N",0
same,foci/cell: number of cells with 16-30 foci,"PANC1 cells [3]; PANC1, Fig. S4B, cell counts",11
same,foci/cell: number of cells with 31-45 foci,"PANC1 cells [3]; PANC1, Fig. S4B, cell counts",3
same,foci/cell: number of cells with 46-60 foci,"PANC1 cells [3]; PANC1, Fig. S4B, cell counts",1
same,foci/cell: number of cells with <15 foci,"PANC1 cells [3]; PANC1, Fig. S4B, cell counts",18
same,foci/cell: number of cells with >61 foci,"PANC1 cells [3]; PANC1, Fig. S4B, cell counts",0
same,foci/cell: share of cells with 16-30 foci (Suma 100),"PANC1 cells [3]; PANC1, Fig. S4B, share of N",33.3333
same,foci/cell: share of cells with 31-45 foci (Suma 100),"PANC1 cells [3]; PANC1, Fig. S4B, share of N",9.091
same,foci/cell: share of cells with 46-60 foci (Suma 100),"PANC1 cells [3]; PANC1, Fig. S4B, share of N",3.0303
same,foci/cell: share of cells with <15 foci (Suma 100),"PANC1 cells [3]; PANC1, Fig. S4B, share of N",54.5455
same,foci/cell: share of cells with >61 foci (Suma 100),"PANC1 cells [3]; PANC1, Fig. S4B, share of N",0
same,"foci/cell, share of cells in class (Suma 100)",PANC1 cells [3]; class 16-30 foci/cell,26.9231
same,"foci/cell, number of cells in class",PANC1 cells [3]; class 16-30 foci/cell,7
same,"foci/cell, share of cells in class (Suma 100)",PANC1 cells [3]; class 31-45 foci/cell,26.9231
same,"foci/cell, number of cells in class",PANC1 cells [3]; class 31-45 foci/cell,7
same,"foci/cell, share of cells in class (Suma 100)",PANC1 cells [3]; class 46-60 foci/cell,15.3846
same,"foci/cell, number of cells in class",PANC1 cells [3]; class 46-60 foci/cell,4
same,"foci/cell, share of cells in class (Suma 100)",PANC1 cells [3]; class <15 foci/cell,3.846
same,"foci/cell, number of cells in class",PANC1 cells [3]; class <15 foci/cell,1
same,"foci/cell, share of cells in class (Suma 100)",PANC1 cells [3]; class >61 foci/cell,26.9231
same,"foci/cell, number of cells in class",PANC1 cells [3]; class >61 foci/cell,7
same,Fold change % Senescence,AGS cells [4],58.06% and 57.14% and 43.1%
same,"foci/cell, share of cells in class (Suma 100)",MKN45 cells [5]; class 16-30 foci/cell,20
same,"foci/cell, number of cells in class",MKN45 cells [5]; class 16-30 foci/cell,5
same,"foci/cell, share of cells in class (Suma 100)",MKN45 cells [5]; class 31-45 foci/cell,24
same,"foci/cell, number of cells in class",MKN45 cells [5]; class 31-45 foci/cell,6
same,"foci/cell, share of cells in class (Suma 100)",MKN45 cells [5]; class 46-60 foci/cell,20
same,"foci/cell, number of cells in class",MKN45 cells [5]; class 46-60 foci/cell,5
same,"foci/cell, share of cells in class (Suma 100)",MKN45 cells [5]; class <15 foci/cell,16
same,"foci/cell, number of cells in class",MKN45 cells [5]; class <15 foci/cell,4
same,"foci/cell, share of cells in class (Suma 100)",MKN45 cells [5]; class >61 foci/cell,20
same,"foci/cell, number of cells in class",MKN45 cells [5]; class >61 foci/cell,5
same,"CDKN1A, Fold change vs GAPDH","AGS cells [6]; Fig. 3C, replicate values",3.618 fold change and 2.316 fold change and 5.653 fold change
same,"IL-6, Fold change vs GAPDH","AGS cells [6]; Fig. 3C, replicate values",2.065 fold change and 3.223 fold change and 3.287 fold change
same,"MMP-1, Fold change vs GAPDH","AGS cells [6]; Fig. 3C, replicate values",226.834 fold change and 185.054 fold change and 278.046 fold change
same,Fold change MAP2K3 vs GAPDH,"AGS cells [6]; Fig. 4B, replicate values",4.889 fold change and 4.056 fold change and 5.8931 fold change
same,MKI67 Fold change vs GAPDH,AGS cells [6]; Fig. S4C,0.1267 fold change and 0.1149 fold change and 0.1396 fold change
same,TNFRSF10D Fold change vs GAPDH,AGS cells [6]; Fig. S4C,23.1799 fold change and 20.8545 fold change and 25.7647 fold change
same,CAT (Fold change vs GAPDH),AGS cells [6]; mRNA vs Control = 1,0.8688 Fold change and 0.7906 Fold change and 0.9547 Fold change
same,SOD1 (Fold change vs GAPDH),AGS cells [6]; mRNA vs Control = 1,1.921 Fold change and 1.645 Fold change and 2.244 Fold change
same,SOD2 (Fold change vs GAPDH),AGS cells [6]; mRNA vs Control = 1,1.44 Fold change and 1.254 Fold change and 1.654 Fold change
same,MKI67 Fold change vs GAPDH,"MKN45 cells [7]; MKN45, Fig. S4C",0.1536 fold change and 0.123 fold change and 0.1918 fold change
same,TNFRSF10D Fold change vs GAPDH,"MKN45 cells [7]; MKN45, Fig. S4C",1.273 fold change and 0.9869 fold change and 1.641 fold change
same,CAT (Fold change vs GAPDH),"MKN45 cells [7]; MKN45, mRNA vs Control = 1",0.5641 Fold change and 0.4321 Fold change and 0.7364 Fold change
same,SOD1 (Fold change vs GAPDH),"MKN45 cells [7]; MKN45, mRNA vs Control = 1",2.6 Fold change and 2.293 Fold change and 2.9486 Fold change
same,SOD2 (Fold change vs GAPDH),"MKN45 cells [7]; MKN45, mRNA vs Control = 1",1.053 Fold change and 0.9005 Fold change and 1.465 Fold change
same,"CDKN1A, Fold change vs GAPDH",MKN45 cells [7]; [9],3.253 fold change and 2.596 fold change and 4.076 fold change
same,"IL-6, Fold change vs GAPDH",MKN45 cells [7]; [9],0.4948 fold change and 2.435 fold change and 1.266 fold change
same,"MMP-1, Fold change vs GAPDH",MKN45 cells [7]; [9],7.796 fold change and 5.223 fold change and 11.6341 fold change
same,Fold change MAP2K3 vs GAPDH,"MKN45 cells [7]; MKN45, Fig. 4B, replicate values",1.986 fold change and 1.696 fold change and 2.324 fold change
same,MKI67 Fold change vs GAPDH,"PANC1 cells [8]; PANC1, Fig. S4C",1.955 fold change and 1.4208 fold change and 2.69 fold change
same,TNFRSF10D Fold change vs GAPDH,"PANC1 cells [8]; PANC1, Fig. S4C",5.496 fold change and 3.924 fold change and 7.699 fold change
same,CAT (Fold change vs GAPDH),"PANC1 cells [8]; PANC1, mRNA vs Control = 1",1.529 Fold change and 1.325 Fold change and 1.766 Fold change
same,SOD1 (Fold change vs GAPDH),"PANC1 cells [8]; PANC1, mRNA vs Control = 1",1.806 Fold change and 1.686 Fold change and 1.679 Fold change
same,SOD2 (Fold change vs GAPDH),"PANC1 cells [8]; PANC1, mRNA vs Control = 1",0.6164 Fold change and 0.5428 Fold change and 0.7 Fold change
same,"CDKN1A, Fold change vs GAPDH",PANC1 cells [8]; [10],4.551 fold change and 3.906 fold change and 5.303 fold change
same,"IL-6, Fold change vs GAPDH",PANC1 cells [8]; [10],7.572 fold change and 6.429 fold change and 8.917 fold change
same,"MMP-1, Fold change vs GAPDH",PANC1 cells [8]; [10],12.6345 fold change and 9.391 fold change and 8.708 fold change
same,Fold change MAP2K3 vs GAPDH,"PANC1 cells [8]; PANC1, Fig. 4B, replicate values",3.332 fold change and 2.993 fold change and 3.71 fold change
